Measured values reported in a melting point compilation (Tetko et al.; mined from patent text by program, amines drawn as free bases though some values may be those of a salt).

melting point	Compound
156 to 160 °C	COC(=O)C1=C(C)NC(C)=C(C(=O)OCCc2cc(C)[nH]c2C)C1c1cccc([N+](=O)[O-])c1 (stereo not drawn)
80 to 81 °C	Cc1ccc(-c2ccccc2C#N)nc1
61 to 64 °C	CCC(C)(CC)C(=O)O[C@H]1CCC=C2C=C[C@H](C)[C@H](CC[C@@H]3C[C@@H](O)CC(=O)O3)[C@H]21
180 °C	Fc1nc(Cl)c2cc[nH]c2n1
266 to 268 °C	Oc1ccc(-c2noc3ccc(O)cc23)cc1
255 to 256 °C	CCn1nc(-c2cnc(N)nc2-c2ccccc2)ccc1=O
175 to 185 °C	CN1CCOc2cc(S(=O)(=O)n3c(CCC(=O)O)cc4nc(Cl)ccc43)ccc21
165 to 169 °C	Cc1nc(N(C)C)sc1C(=O)c1ccc(Cl)c([N+](=O)[O-])c1
234 to 236 °C	c1ccc(Nc2ncnc3[nH]ccc23)cc1
171 to 172 °C	Sc1ccc(-c2ccc(-c3ccc(S)c(S)c3)cc2)cc1S
157 to 159 °C	O=c1cc(-c2ccc(OCCO)cc2)oc2ncccc12
136 to 137 °C	N#CC(C#N)C1(C#N)CCSc2ccccc21 (stereo not drawn)
125 to 127 °C	COc1ccc(/C=C/C(=O)/C=C/C(=O)O)c(OC)c1OC
138 to 140 °C	CC(C)(C)c1ccc(Oc2ccc([N+](=O)[O-])cc2C(=O)Nc2ccccc2)cc1
189 to 192 °C	CCCCN(CCCC)c1ccc(C=Cc2ccc(C(C#N)=C(C#N)C#N)s2)c(OC)c1
70 to 71 °C	O=C(O)CCCc1ccc(CCNS(=O)(=O)c2ccccc2)cc1
231 to 233 °C	O=c1[nH]c2cc(Cl)ccc2c(CCc2nnn[nH]2)c1-c1ccccc1
152 to 154 °C	CC(C)c1cccc(C(C)C)c1NC(=O)NCC1(c2ccc3ccccc3c2)CCCC1
128 to 130 °C	COc1ccc(N2CCN(c3c(C)c(C)c4c(c3C)C(N3CCCC3)C(C)(C)O4)CC2)cc1OC (stereo not drawn)
101 to 105 °C	Cc1ccc(/C=C/c2sccc2S(=O)(=O)Nc2onc(C)c2Br)cc1
87 to 110 °C	CSC(C)=NOC(=O)N(C)SN(C)C(=O)ON=C(C)C(C)=NOC(=O)N(C)SN(C)C(=O)ON=C(SC)C(=O)N(C)C
171 °C	O=C(CC1(c2ccc(OCc3ccc4ccccc4n3)cc2)CCCC1)NS(=O)(=O)Cc1ccccc1
266 to 268 °C	O=C1c2ccccc2C(=O)N1CC(=O)N1c2ccc(F)cc2N(Cc2ccccc2)C(=O)C2CCC[C@H]21 (single isomer, unassigned)
255 to 258 °C	Cc1nc2c(N)cc(S(=O)(=O)N(C)C)cc2n1C
96 to 101 °C	COc1cc(/C=C/c2cc(/C=C/c3ccc4[nH]ccc4c3)n[nH]2)ccc1OCc1ccccn1

melting point	Compound
168 °C	CCCn1cnc2c1c(=O)n(CCCC(C)(O)C#CCN1CCN(C)CC1)c(=O)n2C (stereo not drawn)
41.5 to 43 °C	CCCCCCCCCCCCCCCCOC[C@@H]1OCCC[C@H]1O (relative stereo)
118 to 119 °C	COCCOc1cc(NC(=O)OC(C)(C)C)c([N+](=O)[O-])cc1C#Cc1ccccc1
107 to 108 °C	CCCCCc1ncc(C(=O)OCC)c(NCc2ccc(-c3ccccc3-c3nnnn3C(c3ccccc3)(c3ccccc3)c3ccccc3)cc2)n1
273 to 274 °C	S=C1CNC(=S)c2cc(Cl)ccc2N1
124 to 125 °C	CCOC(=O)C1=NN(c2cccc3ccccc23)C(C(=O)OCC)=NN1c1ccccc1
201 to 203 °C	O=C1C(=Cc2ccccc2)CS(=O)(=O)CC1=Cc1ccccc1
> 243 °C	O=C(O)c1c2nc3cc(Cl)c(Br)cc3c-2[nH]c2ccccc12
154 to 157 °C	O=C1COCCN1c1ccc(N2C[C@@H](CI)OC2=O)cc1
268 to 269 °C	O=C(O)C1=Cc2cc(C(=O)c3ccc(Cl)cc3)ccc2OC1C(F)(F)F (stereo not drawn)
135 to 140 °C	COc1ccccc1N1CCN(CCCNC(=O)c2cccc3c(=O)cc(-c4ccccc4)[nH]c23)CC1
176 to 178 °C	CN1C=C(N2CCCC2)c2ccc3ccccc3c2S1(=O)=O
165 to 168 °C	O=C(O)c1ccccc1N1C(=O)C=CC1=O
201 to 204 °C	O=C(N[C@@H]1C(=O)N[C@@H]1C=Cc1ccccc1)OCc1ccccc1
239 to 240 °C	NC(=O)c1ccc(C(c2ccccc2)(c2ccccc2)c2ccccc2)cn1
112 to 113 °C	Nc1cccc(C(=O)c2ccc(Oc3ccccc3)c(N)c2)c1
117 to 119 °C	CC(C)c1ccc(C2(OC(=O)c3ccccc3)C(=O)c3ccccc3C2=O)c(O)c1
193 to 195 °C	OCC1OC(n2cnc3c(Nn4cccc4)ncnc32)C(O)C1O (stereo not drawn)
102 °C	CC(C)(C)OC(=O)NCCCCNC(=O)Cc1ccc2ccccc2c1
100 to 102 °C	COc1c(Br)cc(Br)cc1C1(C#N)CCCCC1
58 °C	C=C(C)C(=O)OCCCOc1ccc(OC(=O)C(=C)C)cc1
116 °C	COc1ccc(Cl)c(Oc2c(COCC(O)CO)nc(N3CCOCC3)nc2NS(=O)(=O)c2ccc(C(C)C)cn2)c1 (racemic)
228 °C	O=C(Nc1ccc(N2CCOCC2=O)cc1)[C@H]1CCCN1C(=O)Nc1ccc(Cl)cc1
219 to 220 °C	CCOC(=O)c1ccc(NC(=O)NC2CN(C3CCCCC3)c3ccccc3N(CC(=O)c3cccs3)C2=O)cc1 (stereo not drawn)
106 to 108 °C	Nc1ncccc1CCc1ccccc1

melting point	Compound
115 to 125 °C	COC1=CC2=CCC3C(CCC4(C)C(C5=NC(OCc6ccccc6)OC5)=CCC34)C2(C)CC1 (stereo not drawn)
> 250 °C	N#Cc1cc(-c2nc3cncnc3s2)ccc1Oc1ccc(O)cc1
73 to 74 °C	Cc1cc(N2CCC(CN3CCN(S(=O)(=O)c4ccc(Br)cc4)CC3)CC2)nc(C)n1
201 °C	COc1ncccc1-c1nc2c(N[C@H]3[C@@H](C(N)=O)[C@@H]4C=C[C@H]3C4)c(Br)cnc2[nH]1
50 °C	CC(C)(C)OC(=O)N1CCC(CNC(=O)[C@@H]2CCCN2C(=O)OCc2ccccc2)CC1
226 to 228 °C	CCOC(=O)C(=O)NC1N=C2C(=Cc3ccccc32)S1 (stereo not drawn)
110 to 118 °C	CCN(CC)c1ccc(/C=C/C(=O)CC(=O)/C=C/c2ccc3cc[nH]c3c2)cc1
184 to 188 °C	Cc1cc(C)c2cccc(OCc3c(Cl)ccc(S(=O)(=O)N4CCC[C@H]4C(=O)NCCCNC(=O)Cc4ccc(C=NN)cc4)c3Cl)c2n1
235 °C	CC(C)(C)C1=NN(c2ccc(C(=O)O)cc2)C(c2cccc([N+](=O)[O-])c2)C1 (stereo not drawn)
68 to 70 °C	CN1C(=O)C(c2ccc(OC(F)F)cc2)(c2cccc(C3CC(=O)C3)c2)N=C1N (stereo not drawn)
192 to 193 °C	CCn1ncc2c(Cl)c(C(N)=O)cnc21
169 to 170 °C	COc1nc(C)c(N2CCCn3c2nc2c(Cl)ccc(C(OC(F)F)C(F)(F)F)c23)c(C)n1 (stereo not drawn)
222 to 225 °C	COc1cc(Br)c(OC)c(C(N)=O)c1
131 °C	COc1ccc2[nH]cc(-c3cc4c(OC)ncnc4n3S(=O)(=O)c3ccc(C)cc3)c2c1
235 to 238 °C	COC1C2=C3C(=CN1OC)OCCC3CCC2 (stereo not drawn)
90 to 92 °C	CC(C)(C)c1ccc(C2OCC(CO)([N+](=O)[O-])CO2)cc1 (stereo not drawn)
106 to 110 °C	CC(N)(Cc1c[nH]c2ccccc12)C(=O)NCCc1ccccc1 (stereo not drawn)
171 to 173 °C	CC(COc1ccc(N2N=C3c4ccccc4SCC3CC2=O)cc1)N(C)C (stereo not drawn)
268 to 270 °C	N#Cc1ccc(/C=C/S(=O)(=O)CS(=O)(=O)/C=C/c2ccc(C#N)cc2F)c(F)c1
91 to 92 °C	CCCCc1nc(C(=O)CCC)c(C#N)[nH]1
> 250 °C	Nc1nc(N)nc(-c2ccc(NS(=O)(=O)c3cccc4ccccc34)cc2)n1
192 to 194 °C	O=C1NC(=O)C2(CCOc3c([N+](=O)[O-])cc(F)cc32)S1 (stereo not drawn)
233 °C	CN1CCN(C(=O)CCC(=O)c2ccc3[nH]c4ncc(Cl)cc4c3c2)CC1
83 to 85 °C	CCCCOCCCNc1ccc(-n2cc(C(F)(F)F)ccc2=O)c(Cl)c1
139 °C	CCOC(=O)c1cc2c(C)c(C(=O)OCC)sc2[nH]1

melting point	Compound
146 to 148 °C	N=c1cc(N)nc2n1CCS2
221 to 225 °C	CNC(=O)C(Cc1ccc(OC)cc1)NC(=O)CC(S)C(CC(C)C)C(N)=O (stereo not drawn)
171 to 173 °C	CCCn1cc(-c2ccncc2)cc(N)c1=O
145 °C	COC(=O)NNC(=O)c1cc(OC)c(OC)c(OC)c1
119 to 121 °C	OC(c1nn(-c2c(Cl)cc(C(F)(F)F)cc2Cl)cc1C1CC1(Br)Br)C(F)(F)F (stereo not drawn)
146 to 148 °C	CN=C(NC#N)NCCSCc1ncccc1O
97 to 98 °C	CCOC(=O)c1sc(Cc2ccccc2)nc1O
272 to 274 °C	CC(C)n1nc(-c2c(NC(=N)N)nc(N)nc2-c2ccccc2)ccc1=O
118 to 120 °C	O=C(Nc1cc(Cl)ccn1)c1ccccn1
64 to 65 °C	COC(=O)CCCCCS(=O)c1ccc(-c2ccc(Cl)cc2)cc1 (stereo not drawn)
150 to 152 °C	N#Cc1ccc(C2(n3ccnc3)Cc3ccccc3C2)cc1
205 to 206 °C	COC(=O)c1ccc(NC(=O)c2sc3ccc(OC)cc3c2Cl)cc1
339 °C	O=C(Nc1ccc([N+](=O)[O-])cc1Cl)c1ccc(C(=O)Nc2ccc([N+](=O)[O-])cc2Cl)cc1
187 to 189 °C	Cc1cnc(N)c(S(N)(=O)=O)c1
135 °C	CN(C)c1ccc(I)nn1
91 to 93 °C	Fc1ccc(-c2cc(Br)sc2-c2ccc(F)cc2)cc1
35 °C	CC(O)C1CCCCCCCCCCC1 (stereo not drawn)
215 to 216 °C	CC(C)n1nc(-c2c(NCc3cccnc3)nc(N)nc2-c2ccccc2)ccc1=O
212 to 214 °C	COc1ccc(-c2cc3nccnc3[nH]2)cc1OC
175 °C	CS(=O)(=O)C(=C1CN(C(c2ccc(Cl)cc2)c2ccc(Cl)cc2)C1)c1cccc(C(=O)NN2CCCCC2)c1
94.5 to 95 °C	CCN(Cc1ccc(C(=O)O)cc1)c1cc(Br)ccc1OCc1ccccc1
141 to 144 °C	COc1cc(C(=O)N2Cc3cccn3Cc3ccccc32)ccc1-n1c(C)ccc1C

Compound	melting point
CN1Cc2c(-c3nc(C4CC4)no3)ncn2-c2ccc(F)cc2C1=O	216 to 217 °C
